Reference: the supplement of paper PMC11451515

Tests used:
Test in all cases: AUC of viability dose-response curve (% viability x log10 dose units); higher = less sensitive
Settings in all cases: 48 h
NOMO1 = system: NOMO1
Summary of the method: (§1)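 In 1536-well plates, leukemia cells adapted to each medium (500 or 1000 cells/well) were exposed for 48 h at 37°C to library compounds in DMSO across 11 threefold doses, 47 μM down to 0.79 nM. Viability was read by CellTiter-Glo One luminescence and normalised per plate to DMSO and cell-free wells. A four-parameter log-logistic fit over log10 doses was integrated by trapezoidal rule. This yielded the area under the curve, with over-full-viability curves scaled and quality-control failures dropped.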

P12-Ichikawa = system: P12-Ichikawa
Summary of the method: as §1

SEM cells = system: SEM cells
Summary of the method: as §1

[1] = RPMI 5 mM glucose + 10% dialyzed FBS

Row | SMILES | AUC of viability dose-response curve (NOMO1; HPLM + 10% dialyzed FBS) | AUC of viability dose-response curve (NOMO1; RPMI 5 mM glucose + 10% FBS) | AUC of viability dose-response curve (NOMO1; [1]) | AUC of viability dose-response curve (P12-Ichikawa; HPLM + 10% dialyzed FBS) | AUC of viability dose-response curve (P12-Ichikawa; RPMI 5 mM glucose + 10% FBS) | AUC of viability dose-response curve (P12-Ichikawa; [1]) | AUC of viability dose-response curve (SEM cells; HPLM + 10% dialyzed FBS) | AUC of viability dose-response curve (SEM cells; RPMI 5 mM glucose + 10% FBS) | AUC of viability dose-response curve (SEM cells; [1])
1 | COc1ccc2[nH]cc(CCNC(C)=O)c2c1 | 474 | 429 | 462 | 451 | 458 | 444 | 472 | 469 | 446
2 | COc1cc(OC)c(C(=O)CCCN2CCCC2)c(OC)c1 | 448 | 440 | 441 | 464 | 456 | 417 | 446 | 451 | 443
3 | N#CC[C@H](C1CCCC1)n1cc(-c2ncnc3[nH]ccc23)cn1 | 384 | 374 | 407 | 408 | 401 | 372 | 405 | 396 | 402
4 | CCCCCN(CCC12CC3CC(CC(C3)C1)C2)C(=O)NCCCc1ccncc1 | 454 | 465 | 467 | 458 | 469 | 465 | 472 | 463 | 466
5 | Nc1nc(N)c(N=O)c(OCC2CCCCC2)n1 | 381 | 379 | 380 | 395 | 372 | 371 | 340 | 354 | 370
6 | CC(C)(C)OC(=O)Nc1ccc(-c2cc(C(=O)NCCCCCCC(=O)NO)no2)cc1 | 379 | 346 | 361 | 333 | 297 | 276 | 343 | 333 | 288
7 | C[C@H]1Oc2cc(cnc2N)-c2c(nn(C)c2C#N)CN(C)C(=O)c2ccc(F)cc21 | 459 | 467 | 463 | 462 | 463 | 461 | 446 | 457 | 473
8 | CC(C)n1cnc2c(NCCc3ccc(O)cc3)nc(-c3csc4ccccc34)nc21 | 393 | 434 | 433 | 371 | 428 | 422 | 424 | 396 | 388
